Patent US9861653B2, “Synergistic anti-cancer composition and a process for the preparation thereof” (Council of Scientific and Industrial Research, priority 2012, dated 2018)
Entries after “also recorded” stand apart in the source; their conditions may differ.

Key:
[1] = test system: ANV-1 breast cancer cells with CSC-like property; assay: MTS viability assay on ANV-1 breast cancer cells; format: cell-based, mouse
Method: The % of viabilities of treated cells (Y-axis) were calculated with respect to untreated cells [* denotes p<0.001 between DX-ESC8+NRP-1 group with other groups]
Cells were treated with a) DX-nutilin+NRP-1 ShRNA plasmid, b) DX-nutilin+control plasmid, c) DX+NRP-1 ShRNA plasmid, d) nutilin as free drug. The treatments were done in two different conditions, a) continuous treatment for 48 h by the respective formulations with […] effective nutilin concentration; b) treatment for only 4 h by respective formulations with […] effective nutilin concentrations. The % viabilities of treated cells (Y-axis) were calculated with respect to untreated cells.
(§1) Cancer cells (ANV-1, PANC-1, ASPC-1) were inoculated at a concentration of 5000 cells/well of 96-well cell culture plates in 10% Fetal Calf serum (FCS) containing DMEM media. Following an incubation of minimum of 16 h at 37° C., the cells were treated in triplicate with respective lipoplexes (DX-ESC8, DO-ESC8, DX,) pre-complexed with 0.3 μg of NRP-1 or control plasmid amounts per well as discussed in Example 1. The cells were also treated with naked liposomes with or without ESC8 or free drug, ESC8, in a final volume of 300 μl (volume made up with 10% FCS containing DMEM media) continuously for 48 h (mostly) or 72 h. […] Thereafter cells were assayed for viability using MTS assay kit (Promega) following manufacturer's protocol.
For cells treated with DX-nutilin, the test solutions were: a) DX-nutilin pre-complexed with 0.3 µg of NRP-1 Sh-RNA plasmid, b) […] pre-complexed with 0.3 µg control plasmid, c) DX liposome pre-complexed with 0.3 µg NRP-1 Sh-RNA plasmid, d) only […] addition.

[2] = test system: PANC-1 pancreatic cancer cells; assay: MTS viability assay on PANC-1 pancreatic cancer cells; format: cell-based, human; details: 48 h, ESC8 5 or 2.5 μM
Method: Cells were treated for 48 h with a) DX-ESC8+NRP-1 ShRNA plasmid, b) DX-ESC8+control plasmid, c) DO-ESC8+NRP-1, d) DO-ESC8+control plasmid e) ESC8, as free drug at the drug concentrations of 5 or 2.5 μM in either naked or respective formulated state. The % of viabilities of treated cells (Y-axis) were calculated with respect to untreated cells [* denotes p<0.01 between DX-ESC8 lipoplex groups with other groups].
as §1

[3] = test system: ASPC-1 pancreatic cancer cells; assay: MTS viability assay on ASPC-1 pancreatic cancer cells; format: cell-based, human; details: 48 h or 72 h continuous treatment, ESC8 5 μM
Method: Cells were treated for 48 h with a) DX-ESC8+NRP-1 ShRNA plasmid, b) DX-ESC8+control plasmid, c) DO-ESC8+NRP-1 ShRNA plasmid, d) DX+NRP-1 ShRNA plasmid, followed by ESC8 treatment e) ESC8, as free drug at the drug concentration of 5 μM in either naked or respective formulated state. The % of viabilities of treated cells (Y-axis) were calculated with respect to untreated cells [* denotes p<0.01 between DX-ESC8 lipoplex groups with other groups].
Cells were treated for 72 h with a) DX-ESC8+NRP-1 ShRNA plasmid, b) DX-ESC8+control plasmid, c) DX+NRP-1 ShRNA plasmid, d) DO+NRP-1 ShRNA plasmid e) ESC8, as free drug at the drug concentration of 5 μM in either naked or respective formulated state. For groups c and d the liposome concentrations of DX or DO were equivalent to the corresponding liposome concentration in DX-ESC8 containing 5 μM ESC8. The % of viabilities of treated cells (Y-axis) were calculated with respect to untreated cells [* denotes p<0.01 between DX-ESC8 lipoplex groups or DX+NRP-1 ShRNA plasmid group with other groups].
Cancer cells (ANV-1, PANC-1, ASPC-1) were inoculated at a concentration of 5000 cells/well of 96-well cell culture plates in 10% Fetal Calf serum (FCS) containing DMEM media. […]

CCCCCCCC[N+](C)(CCCCCCCC)CCC[C@]1(O)CC[C@H]2[C@@H]3CCc4cc(O)ccc4[C@H]3CC[C@@]21C [ESC8, 17-α-[3-(N,N-dioctyl,N-methyl-amino)-propan-1-yl]-17β-estradiol]
anticancer effect towards ANV-1 breast cancer cells ([1]; 48 h, ESC8 10 or 5 μM naked or formulated (FIG. 1)): very limited effect; also recorded: least anticancer effect | viability of ANV-1 cells ([1]; 48 h treatment, drug concentration 10 or 5 μM, with respect to untreated cells (FIG. 1)): 60-70% | ESC8 free drug concentration needed to get 95-100% of ANV-1 cell killing ([1]; 72 h treatment): at least 50 μM | visual effect on ANV-1 cells ([1]; shorter treatment time): no visual effect | anti-cancer effect on PANC-1 cells [2]: no anticancer effect; also recorded: no toxicity | killing / anticancer effect on ASPC-1 cells [3]: no anticancer effect; also recorded: least toxic effect
